The numbers were not newly measured in patent US20250221905A1, “HAIR CARE COMPOSITION” (Conopco, Inc., d/b/a UNILEVER, priority 2022, published 2025), which cites them from elsewhere.

Data set [1] relates to 5α-reductase. The note with it: background statement.
The conditions of data set [2]: supplier Croda.

Turning to `CCCCCCCC(=O)NCC(=O)O` [Capryloyl glycine, N-(1-oxooctyl) glycine], the “sebum excess action modeled by 5α-reductase evaluation” value in data set [1] is listed as “reduce sebum excess action”. For Oleth-20 [Brij O20], in data set [2], the HLB value is 15.5. Consider Polysorbate 85 [Tween 85], for which the HLB value in data set [2] is on record as 11. Consider Steareth-2 [Brij S2], for which the HLB value in data set [2] was 4.9.
